SMILES strings stand for the structures.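 Interpolation was linear, between the two tested concentrations surrounding the appropriate level; five concentrations were tested over 48 hours in 96-well plates. GI50 = concentration required for 50% inhibition of growth. TGI is the concentration that stops growth completely.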

Test systems include LOX IMVI melanoma; COLO 205 colon; OVCAR-5 ovarian; UO-31 renal; UACC-62 melanoma; HOP-62 NSCLC; OVCAR-3 ovarian; A549 NSCLC; CAKI-1 renal; RXF 393 renal.
Holding throughout (experiment): NCI-60 cell line screen, 48 h

Turning to `CC1(C)C2C/C(=C\c3ccccc3)C(=O)C1C2` (stereo not given), the TGI with LOX IMVI melanoma, in the test on COLO 205 colon, with OVCAR-5 ovarian, in the test with UO-31 renal, with UACC-62 melanoma and in the test with HOP-62 NSCLC was > 100 µM in each case. In addition, the TGI in the test on OVCAR-3 ovarian, with A549 NSCLC, in the test with CAKI-1 renal and in the test on RXF 393 renal was > 100 µM in each case.
With `COC(=O)C(CC(=O)Nc1ccc(Cl)c(Cl)c1)C(=O)C(=O)NC1C2CC3CC(C2)CC1C3` (stereo not given), the TGI in the test on LOX IMVI melanoma, in the test on COLO 205 colon, in the test on OVCAR-5 ovarian, in the test with UO-31 renal, in the test with UACC-62 melanoma and in the test on HOP-62 NSCLC was > 100 µM in each case. The TGI in the test on OVCAR-3 ovarian, in the test with A549 NSCLC, in the test on CAKI-1 renal and in the test with RXF 393 renal was > 100 µM throughout.
For the compound `O=C(NCP(=O)(O)O)c1cccnc1`, the TGI with LOX IMVI melanoma, in the test with COLO 205 colon, with OVCAR-5 ovarian, in the test on UO-31 renal, with UACC-62 melanoma and with HOP-62 NSCLC was > 100 µM throughout. In addition, the TGI with OVCAR-3 ovarian, in the test on A549 NSCLC, with CAKI-1 renal and in the test with RXF 393 renal was > 100 µM each time.
On to `C[CH2][Sn]([Cl])([Cl])[CH2]C`, for which the GI50 is 17.5 µM in the test with LOX IMVI melanoma; 19.1 µM in the test with COLO 205 colon; > 100 µM with OVCAR-5 ovarian; 97.8 µM in the test with UO-31 renal; 22 µM in the test with UACC-62 melanoma; > 100 µM in the test on HOP-62 NSCLC. Also, the GI50 was 98 µM in the test on OVCAR-3 ovarian, > 100 µM in the test with A549 NSCLC, 8.91 µM in the test with CAKI-1 renal and 17.5 µM in the test on RXF 393 renal. The TGI with LOX IMVI melanoma was 33.1 µM; with COLO 205 colon, 34.8 µM; in the test on OVCAR-5 ovarian, > 100 µM; with UO-31 renal, > 100 µM; in the test with UACC-62 melanoma it was 47.8 µM; in the test with HOP-62 NSCLC it was > 100 µM. Moreover, the TGI in the test on OVCAR-3 ovarian was > 100 µM; in the test with A549 NSCLC it was > 100 µM; in the test on CAKI-1 renal, 25.8 µM; with RXF 393 renal, 32.7 µM.
As to `C=CC(=O)Nc1cccc(C)c1Nc1ncc2cc(-c3c(Cl)c(OC)cc(OC)c3Cl)ccc2n1`, the GI50 is 2.33 µM with LOX IMVI melanoma; 4.17 µM with COLO 205 colon; 17.9 µM in the test with OVCAR-5 ovarian; 3.66 µM in the test with UO-31 renal; 7.96 µM in the test with UACC-62 melanoma; 8.86 µM with HOP-62 NSCLC. Also, the GI50 was 2.78 µM with OVCAR-3 ovarian, 7.27 µM in the test with A549 NSCLC, 8.39 µM with CAKI-1 renal and 1.3 µM in the test on RXF 393 renal. For the same compound, the TGI is 14.1 µM in the test on LOX IMVI melanoma; 36.7 µM in the test on COLO 205 colon; > 100 µM in the test with OVCAR-5 ovarian; 61.5 µM in the test on UO-31 renal; 42.9 µM in the test on UACC-62 melanoma; 50 µM with HOP-62 NSCLC. Besides, the TGI is 13.1 µM in the test on OVCAR-3 ovarian, 97.4 µM in the test with A549 NSCLC, > 100 µM with CAKI-1 renal and 4.59 µM with RXF 393 renal.
With `CS/C(c1ccccc1)=[N+](/C)[O-]`, the TGI in the test on LOX IMVI melanoma was > 58.2 µM; in the test on COLO 205 colon, > 61.5 µM; in the test on OVCAR-5 ovarian it was > 100 µM; with UO-31 renal it was > 100 µM; with UACC-62 melanoma, > 100 µM; in the test with HOP-62 NSCLC, > 100 µM. Moreover, the TGI in the test with OVCAR-3 ovarian, in the test on A549 NSCLC, in the test with CAKI-1 renal and in the test on RXF 393 renal was > 100 µM in each case.
For `NC(CCSC(F)F)C(=O)O` (stereo not given), the TGI in the test on LOX IMVI melanoma, in the test with COLO 205 colon, in the test on OVCAR-5 ovarian, in the test with UO-31 renal, in the test with UACC-62 melanoma and in the test with HOP-62 NSCLC was > 100 µM throughout. For the same compound, the TGI with OVCAR-3 ovarian, in the test on A549 NSCLC, in the test with CAKI-1 renal and in the test with RXF 393 renal was > 100 µM throughout.
Take `COCCNC(=O)c1ccc(-c2nc3ccc4[nH]ncc4c3c3c2CCCC3)cc1`: the GI50 with LOX IMVI melanoma is 2.88 µM; with COLO 205 colon it was 2.83 µM; in the test on OVCAR-5 ovarian it was 6.05 µM; in the test on UO-31 renal, 1.58 µM; in the test with UACC-62 melanoma it was 1.58 µM; with HOP-62 NSCLC, 0.969 µM. Moreover, the GI50 in the test with OVCAR-3 ovarian was 3.85 µM; in the test on A549 NSCLC it was 2.13 µM; in the test on CAKI-1 renal it was 0.689 µM; in the test with RXF 393 renal it was 0.498 µM. The TGI in the test on LOX IMVI melanoma was > 100 µM; with COLO 205 colon it was 15 µM; with OVCAR-5 ovarian, > 100 µM; in the test with UO-31 renal, 5.74 µM; in the test on UACC-62 melanoma, 13.1 µM; in the test with HOP-62 NSCLC, 39.5 µM. Further, the TGI in the test on OVCAR-3 ovarian was 37.3 µM; in the test with A549 NSCLC, > 100 µM; in the test on CAKI-1 renal, 7.29 µM; with RXF 393 renal it was 3.7 µM.
With `Cc1cccc2c1C/C(=C1\CCc3c(C)cccc31)C2=O`, the TGI with LOX IMVI melanoma, in the test on COLO 205 colon, with OVCAR-5 ovarian, in the test with UO-31 renal, with UACC-62 melanoma and in the test with HOP-62 NSCLC was > 100 µM throughout. Also, the TGI with OVCAR-3 ovarian, in the test on A549 NSCLC, with CAKI-1 renal and in the test with RXF 393 renal was > 100 µM each time.

Source of the values: PubChem BioAssay (NCI).
